Read-outs that look alike come from different tables or passages of the source.
Columns and labels:
[1] = target: T1, PLA2G16 (Homo sapiens, UniProt P53816); assay: Enzyme activity assay for PLA2G16 (Red/Green BODIPY PC-A2 fluorescence); assay type: biochemical; conditions: His-tagged PLA2G16, 4 min pre-incubation, 2 nM to 50 μM; read-out: IC50 values of the compounds determined in the enzyme activity assay for PLA2G16
T1 construct: Hexa-His (N); made in house; host or cells: E. coli BL21(DE3)
T1 sequence (P53816 1-162): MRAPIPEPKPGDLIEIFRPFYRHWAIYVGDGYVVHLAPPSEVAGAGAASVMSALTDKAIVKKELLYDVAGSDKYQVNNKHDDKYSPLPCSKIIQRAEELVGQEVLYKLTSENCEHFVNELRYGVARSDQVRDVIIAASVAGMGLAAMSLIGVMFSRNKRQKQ
Procedure, shortened: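 IC50 from non-linear fits of fluorescence rise (480/530 nm, 10 min) after adding Red/Green BODIPY PC-A2 mixed with DOPC/DOPG/cholesterol liposomes. Recombinant His-tagged human enzyme, bacterially expressed, was first exposed to inhibitor (2 nM–50 μM final) for 4 min in 50 mM Tris pH 8.5, 100 mM NaCl, 5 mM glutathione.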

[2] = system: picornaviruses (CVB1, HRV-A2, HRV-A23, EV-68); assay: Anti-picornavirus cytopathic effect (CPE) reduction assay on HeLa H1 cells; assay type: cell-based; conditions: HeLa H1 cells, 48 h, category from averaging the EC50 values from four picornaviruses (CVB1, HRV-A2, HRV-A23, EV68), read-out: EC50 values of the compounds determined in the anti-picornavirus assay
Procedure, shortened: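 Cytopathic-effect protection: EC50 from non-linear regression of cell viability (CellTiterBlue, 560/590 nm) 48 h post-infection, scaled between infected and mock-infected vehicle wells. Compound dilutions added to HeLa H1 cells 2 h before virus (MOI causing complete CPE within 2 days), in DMEM + 2% FBS; categories average the four viruses.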

SMILES | IC50 [1] | EC50 ([2]; Enterovirus B, HeLa H1, 48 h) | EC50 [2]
CCC(C(=O)C(=O)NCC1CCCCC1)N(C=O)CC1CN(C(=O)OC(C)(C)C)C1 (centres unmarked) [FP 61, tert-Butyl 3-[(NM{1-[(cyclohexylmethyl)carbamoyl]-1-oxobutan-2-yl}formamido)methyl]-azetidine-1-carboxylate] | < 1000 nM | 1000 to 10000 nM | –
COc1ccccc1N(C=O)C(CC(C)C)C(=O)C(=O)NCc1cccc(Cl)c1 (centres unmarked) [FP 13, N-[(3-Chlorophenyl)methyl]-3-[N-(2-methoxyphenyl)formamido]-5-methyl-2-oxohexanamide] | < 1000 nM | < 1000 nM | –
CC(C)C(C(=O)C(N)=O)N(C=O)Cc1ccccc1 (centres unmarked) [FP 198, 3-(N-Benzylformamido)-4-methyl-2-oxopentanamide] | 1000 to 10000 nM | > 10000 nM | –
CCC(NC(=O)c1ccccc1)C(=O)C(=O)NC1CC1 (centres unmarked) [FP 183, N-Cyclopropyl-2-oxo-3-(phenylformamido)pentanamide] | 1000 to 10000 nM | > 10000 nM | –
CC(C)CC(C(=O)C(=O)NCC1CC1)N(C=O)C[C@H]1CCOC1 (stereo partly drawn) [FP 65, N-(Cyclopropylmethyl)-5-methyl-2-oxo-3-(N-{[(3R)-oxolan-3-yl]methyl}formamido) hexanamide] | < 1000 nM | 1000 to 10000 nM | –
CC(NC(=O)c1ccccc1)C(=O)C(=O)NCC1CC1 (centres unmarked) [FP 178, N-(Cyclopropylmethyl)-2-oxo-3-(phenylformamido)butanamide] | < 1000 nM | 1000 to 10000 nM | –
CC1(NC(=O)C(=O)C2CCC(=O)N2Cc2ccccc2)CC1 (centres unmarked) [FP 246, 2-(1-Benzyl-5-oxopyrrolidin-2-yl)-N-(1-methylcyclopropyl)-2-oxoacetamide] | < 1000 nM | 1000 to 10000 nM | –
CC(C)[C@H](C(=O)C(=O)NCC1CC1)N(C=O)CC(C)(C)C (single isomer, unassigned) [FP 32] | < 1000 nM | > 10000 nM | –
CC(C(=O)C(=O)NCC1CCCCC1)N(C=O)[C@H]1CC[C@@H](NC(=O)OC(C)(C)C)CC1 (some centres unmarked) [FP 54, tert-Butyl N-[(1s,4s)-4-(N{1-[(cyclohexylmethyl)carbamoyl]-1-oxopropan-2-yl}-formamido)cyclohexyl]carbamate] | < 1000 nM | > 10000 nM | –
CC(C)S(=O)(=O)N1CCC(NC(=O)C(=O)[C@H]2CCC(=O)N2Cc2ccccc2)CC1 [FP 323, 2-[(2R)-1-Benzyl-5-oxopyrrolidin-2-yl]-2-oxo-N-[1-(propane-2-sulfonyl)piperidin-4-yl]acetamide] | < 1000 nM | < 1000 nM | –
O=C(N[C@@H]1CCCC[C@@H]1O)C(=O)[C@H]1CCC(=O)N1Cc1ccccc1 (single isomer, unassigned) [FP 272] | 1000 to 10000 nM | > 10000 nM | –
COc1ccccc1OC(C)C(=O)C(=O)NC(C)C (centres unmarked) [FP 135, 3-(2-Methoxyphenoxy)-2-oxo-N-(propan-2-yl)butanamide] | < 1000 nM | 1000 to 10000 nM | –
CC(C)CC(=O)N1CC(NC(=O)C(=O)[C@H]2CCC(=O)N2Cc2ccccc2)C1 [FP 317, 2-[(2R)-1-Benzyl-5-oxopyrrolidin-2-yl]-N-[1-(3-methylbutanoyl)azetidin-3-yl]-2-oxoacetamide] | < 1000 nM | 1000 to 10000 nM | –
CC(C)[C@H]1CC(=O)N(Cc2ccccc2)[C@@H]1C(=O)C(=O)NC1CC1 (racemic) [FP 342, 2-[(2S,3R)-1-Benzyl-5-oxo-3-(propan-2-yl)pyrrolidin-2-yl]-N-cyclopropyl-2-oxoacetamide and 2-[(2R,3S)-1-benzyl-5-oxo-3-(propan-2-yl)pyrrolidin-2-yl]-N-cyclopropyl-2-oxoacetamide] | < 1000 nM | < 1000 nM | –
CC(OCC1CCOCC1)C(=O)C(=O)NCC1CCCC1 (centres unmarked) [FP 132, N-(Cyclopentylmethyl)-3-[(oxan-4-yl)methoxy]-2-oxobutanamide] | < 1000 nM | < 1000 nM | –
C[C@@H]1CC(=O)N(Cc2ccccc2)[C@@H]1C(=O)C(=O)NC1CC1 (single isomer, unassigned) [FP 338] | < 1000 nM | – | 1000 to 10000 nM
C[C@@H]1CC(=O)N(Cc2ccccc2)[C@H]1C(=O)C(=O)NC1CC1 (single isomer, unassigned) [FP 340] | < 1000 nM | < 1000 nM | –
CC(C(=O)C(=O)NCc1cccc(Cl)c1)N(C=O)C1CCOCC1 (centres unmarked) [FP 22, N-[(3-Chlorophenyl)methyl]-3-[N-(oxan-4-yl)formamido]-2-oxobutanamide] | < 1000 nM | 1000 to 10000 nM | –
CC(C(=O)C(=O)NCC1CCCC1)N(C=O)Cc1ccccc1 (centres unmarked) [FP 200, 3-(N-Benzylformamido)-N-(cyclopentylmethyl)-2-oxobutanamide] | < 1000 nM | < 1000 nM | –

SMILES | IC50 [1] | EC50 ([2]; Enterovirus B, HeLa H1, 48 h) | EC50 [2]
O=C(NC1CC(F)(F)C1)C(=O)[C@H]1CCC(=O)N1Cc1ccccc1 [FP 268, 2-[(2R)-1-Benzyl-5-oxopyrrolidin-2-yl]-N-(3,3-difluorocyclobutyl)-2-oxoacetamide] | < 1000 nM | < 1000 nM | –
CC(C(=O)C(=O)NCC1CC1)N(C=O)CC1CCN(C(=O)c2ccccc2)CC1 (centres unmarked) [FP 80, 3-{N[(1-Benzoylpiperidin-4-yl)methyl]formamido}-N-(cyclopropylmethyl)-2-oxobutanamide] | 1000 to 10000 nM | > 10000 nM | –
CCC(NC(=O)CN1CCCCC1)C(=O)C(=O)NCC1CCCCC1 (centres unmarked) [FP 213, N-(Cyclohexylmethyl)-2-oxo-3-[2-(piperidin-1-yl)acetamido]pentanamide] | < 1000 nM | 1000 to 10000 nM | –
CCCNC(=O)C(=O)[C@H]1CCC(=O)N1Cc1ccccc1 [FP 288, 2-[(2R)-1-Benzyl-5-oxopyrrolidin-2-yl]-2-oxo-N-propylacetamide] | < 1000 nM | < 1000 nM | –
COc1ccccc1N(C=O)C(C)C(=O)C(=O)N[C@@H](C)C(C)C (stereo partly drawn) [FP 108, 3-[N-(2-Methoxyphenyl)formamido]-N-[(2S)-3-methylbutan-2-yl]-2-oxobutanamide] | < 1000 nM | < 1000 nM | –
CC(C(=O)C(=O)NCC1CC1)N(C=O)CC(C)(C)C (centres unmarked) [FP 41, N-(Cyclopropylmethyl)-3-[N-(2,2-dimethylpropyl)formamido]-2-oxobutanamide] | < 1000 nM | 1000 to 10000 nM | –
CC(NC(=O)C1CCC(F)(F)CC1)C(=O)C(=O)NCC1CC1 (centres unmarked) [FP 173, N-(Cyclopropylmethyl)-3-[(4,4-difluorocyclohexyl)formamido]-2-oxobutanamide] | 1000 to 10000 nM | > 10000 nM | –
CC(C(=O)C(=O)NC(C)(C)c1cccc(Cl)c1)N(C=O)C1CCCCC1 (centres unmarked) [FP 27, N[2-(3-Chlorophenyl)propan-2-yl]-3-(N-cyclohexylformamido)-2-oxobutanamide] | < 1000 nM | < 1000 nM | –
COc1ccccc1N(C=O)C(C)C(=O)C(=O)NCc1cccc(Cl)c1 (centres unmarked) [FP 1, N-[(3-Chlorophenyl)methyl]-3-[N-(2-methoxyphenyl)formamido]-2-oxobutanamide] | < 1000 nM | < 1000 nM | –
CCC(C(=O)C(=O)NCC1CCCCC1)N(C=O)C1CCCCC1 (centres unmarked) [FP 60, 3-(N-Cyclohexylformamido)-N-(cyclohexylmethyl)-2-oxopentanamide] | < 1000 nM | 1000 to 10000 nM | –
COc1ccccc1OC(C)C(=O)C(=O)NCc1cccc(Cl)c1 (centres unmarked) [FP 133, N-[(3-Chlorophenyl)methyl]-3-(2-methoxyphenoxy)-2-oxobutanamide] | < 1000 nM | 1000 to 10000 nM | –
COc1ccccc1N(C=O)C(C)C(=O)C(=O)NCc1cnccn1 (centres unmarked) [FP 104, 3-[N-(2-Methoxyphenyl)formamido]-2-oxo-N-[(pyrazin-2-yl)methyl]butanamide] | 1000 to 10000 nM | > 10000 nM | –
CCC(NC(=O)c1cccnc1)C(=O)C(=O)NCC1CCCCC1 (centres unmarked) [FP 210, N-(Cyclohexylmethyl)-2-oxo-3-[(pyridin-3-yl)formamido]pentanamide] | < 1000 nM | 1000 to 10000 nM | –
Cc1ccncc1C(=O)NC(C)C(=O)C(=O)NCC1CCCCC1 (centres unmarked) [FP 209, N-(Cyclohexylmethyl)-3-[(4-methylpyridin-3-yl)formamido]-2-oxobutanamide] | < 1000 nM | 1000 to 10000 nM | –
CC(C)NC(=O)[C@H]1C[C@@H](NC(=O)C(=O)[C@H]2CCC(=O)N2Cc2ccccc2)C1 [FP 305, (1 s,3s)-3-{2-[(2R)-1-Benzyl-5-oxopyrrolidin-2-yl]-2-oxoacetamido}-N-(propan-2-yl)cyclobutane-1-carboxamide] | < 1000 nM | 1000 to 10000 nM | –
C[C@H]1CC(=O)N(Cc2ccccc2)[C@@H]1C(=O)C(=O)NCC1CC1 (single isomer, unassigned) [FP 334] | < 1000 nM | 1000 to 10000 nM | –
O=C(N[C@@H]1C[C@@H]1F)C(=O)[C@H]1CCC(=O)N1Cc1ccccc1 [FP 267, 2-[(2R)-1-Benzyl-5-oxopyrrolidin-2-yl]-N-[(1R,2S)-2-fluorocyclopropyl]-2-oxoacetamide] | < 1000 nM | < 1000 nM | –
CC(C)C(OCC1CCOCC1)C(=O)C(=O)NCC1CC1 (centres unmarked) [FP 137, N-(Cyclopropylmethyl)-4-methyl-3-[(oxan-4-yl)methoxy]-2-oxopentanamide] | < 1000 nM | > 10000 nM | –
